According to patent publication US10961202B2, “Bis-benzimidazole compounds and methods of using the same” (THE SCRIPPS RESEARCH INSTITUTE, priority 2017, dated 2021):

Test system: r(CUG)12-MBNL1 complex
Test: Inhibition of the r(CUG)12-MBNL1 complex measured by TR-FRET
Type: biochemical
Conditions: Table M; 80 nM RNA, 60 nM MBNL1-His6

With C[C@@H](CN(C)C)NC(=O)c1ccc(-c2nc3cc(-c4ccc5[nH]c(-c6ccc(C(=O)N[C@@H](C)CN(C)C)cc6)nc5c4)ccc3[nH]2)cc1 [Compound 389] as the compound, how does the IC50 read?
The IC50 was 34.2 µM.

How did the IC50 turn out when CN(C)CCNC(=O)c1ccc(-c2nc3cc(-c4ccc5[nH]c(-c6ccc(C(=O)O)cc6)nc5c4)ccc3[nH]2)cc1 [Compound 390, 4-(2′-(4-((2-(dimethylamino)ethyl)carbamoyl)phenyl)-3H,3′H-[5,5′-bibenzo[d]imidazol]-2-yl)benzoic acid] was run?
Its IC50 is over 200 µM.

For COCCCOc1ccc(-c2nc3cc(-c4ccc5[nH]c(-c6ccc(C(=O)NCCN(C)C)cc6)nc5c4)ccc3[nH]2)cc1 [Compound 391], which IC50 is on record?
The IC50 was 18.4 µM.

Which IC50 does the source give for CCCCCOc1ccc(-c2nc3cc(-c4ccc5[nH]c(-c6ccc(C(=O)NCCN(C)C)cc6)nc5c4)ccc3[nH]2)cc1 [Compound 392] here?
The IC50 was 18.3 µM.

With CN(C)CCNC(=O)c1ccc(-c2nc3cc(-c4ccc5[nH]c(-c6ccc(OCCCC#N)cc6)nc5c4)ccc3[nH]2)cc1 [Compound 394] as the compound, how does the IC50 read?
Its IC50 is 19 µM.

With CN(C)CCCOc1ccc(-c2nc3cc(-c4ccc(C(=O)NCCN(C)CCN)cc4)ccc3[nH]2)cc1 [Compound 395] as the compound, how does the IC50 read?
The IC50 was over 200 µM.

For CC(=O)NCCN(C)CCNC(=O)c1ccc(-c2ccc3[nH]c(-c4ccc(OCCCN(C)C)cc4)nc3c2)cc1 [Compound 396], which IC50 is on record?
Its IC50 is over 200 µM.

CN(C)CCNC(=O)c1ccc(-c2nc3cc(-c4ccc5[nH]c(-c6ccc(C(=O)NCCOCCOCCOCCOCCN=[N+]=[N-])cc6)nc5c4)ccc3[nH]2)cc1 [Compound 397] was tested. Which IC50 did it give?
Its IC50 is 12.2 µM.

CN(C)CCNC(=O)c1ccc(-c2nc3cc(-c4ccc5[nH]c(-c6ccc(C(=O)NCCOCCOCCN=[N+]=[N-])cc6)nc5c4)ccc3[nH]2)cc1 [Compound 398] was tested. Which IC50 did it give?
The IC50 was 14.7 µM.

CN(C)CCNC(=O)c1ccc(-c2nc3cc(-c4ccc5[nH]c(-c6ccc(C(=O)NCCCN=[N+]=[N-])cc6)nc5c4)ccc3[nH]2)cc1 [Compound 399] was tested. Which IC50 did it give?
The IC50 was 9.6 µM.

Which IC50 does the source give for CN(C)CCCOc1ccc(-c2nc3cc(-c4ccc5[nH]c(-c6ccc(C(=O)NCCCN=[N+]=[N-])cc6)nc5c4)ccc3[nH]2)cc1 [Compound 400] here?
The IC50 was 14.8 µM.

For C[C@@H](NC(=O)CNCCCn1cc(CCCCN(C)CCNC(=O)CCCOc2ccc3[nH]c(-c4ccc(-c5nc6cc(OCCCN(C)C)ccc6[nH]5)cc4)nc3c2)nn1)C(=O)N[C@H](C)C(=O)N[C@H](C)C(=O)N[C@H](C)C(=O)N(CCCn1cc(CCCCN(C)CCNC(=O)CCCOc2ccc3[nH]c(-c4ccc(-c5nc6cc(OCCCN(C)C)ccc6[nH]5)cc4)nc3c2)nn1)CC(N)=O [Compound 407], which IC50 is on record?
Its IC50 is 110 µM.

Which IC50 does the source give for CN(C)CCNC(=O)c1ccc(-c2nc3cc(-c4ccc5[nH]c(-c6ccc(C(=O)N(C)CCCN(C)C(=O)c7ccc(-c8nc9cc(-c%10ccc%11[nH]c(-c%12ccc(C(=O)NCCN(C)C)cc%12)nc%11c%10)ccc9[nH]8)cc7)cc6)nc5c4)ccc3[nH]2)cc1 [Compound 409] here?
Its IC50 is 50.6 µM.

CN(C)CCNC(=O)c1ccc(-c2nc3cc(-c4ccc5[nH]c(-c6ccc(C(=O)NC7CCCCC7NC(=O)c7ccc(-c8nc9cc(-c%10ccc%11[nH]c(-c%12ccc(C(=O)NCCN(C)C)cc%12)nc%11c%10)ccc9[nH]8)cc7)cc6)nc5c4)ccc3[nH]2)cc1 (stereo not shown) [Compound 410] was tested. Which IC50 did it give?
Its IC50 is 34.4 µM.

CC(CNC(=O)c1ccc(-c2nc3cc(-c4ccc5[nH]c(-c6ccc(C(=O)NCCN(C)C)cc6)nc5c4)ccc3[nH]2)cc1)NC(=O)c1ccc(-c2nc3cc(-c4ccc5[nH]c(-c6ccc(C(=O)NCCN(C)C)cc6)nc5c4)ccc3[nH]2)cc1 (stereo not shown) [Compound 411] was tested. Which IC50 did it give?
Its IC50 is 1.91 µM.

CN(C)CCNC(=O)c1ccc(-c2nc3cc(-c4ccc5[nH]c(-c6ccc(C(=O)NCCNC(=O)c7ccc(-c8nc9cc(-c%10ccc%11[nH]c(-c%12ccc(C(=O)NCCN(C)C)cc%12)nc%11c%10)ccc9[nH]8)cc7)cc6)nc5c4)ccc3[nH]2)cc1 [Compound 412] was tested. Which IC50 did it give?
Its IC50 is 3.28 µM.

With CN(C)CCNC(=O)c1ccc(-c2nc3cc(-c4ccc5[nH]c(-c6ccc(C(=O)NCCCNC(=O)c7ccc(-c8nc9cc(-c%10ccc%11[nH]c(-c%12ccc(C(=O)NCCN(C)C)cc%12)nc%11c%10)ccc9[nH]8)cc7)cc6)nc5c4)ccc3[nH]2)cc1 [Compound 413] as the compound, how does the IC50 read?
The IC50 was 3.34 µM.

For CN(C)CCNC(=O)c1ccc(-c2nc3cc(-c4ccc5[nH]c(-c6ccc(C(=O)NCCCCCNC(=O)c7ccc(-c8nc9cc(-c%10ccc%11[nH]c(-c%12ccc(C(=O)NCCN(C)C)cc%12)nc%11c%10)ccc9[nH]8)cc7)cc6)nc5c4)ccc3[nH]2)cc1 [Compound 414], which IC50 is on record?
The IC50 was 8.16 µM.

With C[C@@H](C(=O)N(C)[C@@H](C)C(=O)N(C)[C@@H](C)C(=O)N(CCCCN(C)C(=O)c1ccc(-c2nc3cc(-c4ccc5[nH]c(-c6ccc(C(=O)NCCN(C)C)cc6)nc5c4)ccc3[nH]2)cc1)CC(N)=O)N(C)C(=O)c1ccc(-c2nc3cc(-c4ccc5[nH]c(-c6ccc(C(=O)NCCN(C)C)cc6)nc5c4)ccc3[nH]2)cc1 [Compound 415] as the compound, how does the IC50 read?
The IC50 was 5.15 µM.

For C[C@@H](C(=O)N(C)[C@@H](C)C(=O)N(C)[C@@H](C)C(=O)N(C)[C@@H](C)C(=O)N(CCCCN(C)C(=O)c1ccc(-c2nc3cc(-c4ccc5[nH]c(-c6ccc(C(=O)NCCN(C)C)cc6)nc5c4)ccc3[nH]2)cc1)CC(N)=O)N(C)C(=O)c1ccc(-c2nc3cc(-c4ccc5[nH]c(-c6ccc(C(=O)NCCN(C)C)cc6)nc5c4)ccc3[nH]2)cc1 [Compound 416], which IC50 is on record?
The IC50 was 39 µM.

For C[C@@H](C(=O)N(C)[C@@H](C)C(=O)N(C)[C@@H](C)C(=O)N(C)[C@@H](C)C(=O)N(C)[C@@H](C)C(=O)N(CCCCN(C)C(=O)c1ccc(-c2nc3cc(-c4ccc5[nH]c(-c6ccc(C(=O)NCCN(C)C)cc6)nc5c4)ccc3[nH]2)cc1)CC(N)=O)N(C)C(=O)c1ccc(-c2nc3cc(-c4ccc5[nH]c(-c6ccc(C(=O)NCCN(C)C)cc6)nc5c4)ccc3[nH]2)cc1 [Compound 417], which IC50 is on record?
Its IC50 is 9.24 µM.

With CC(=O)N(CCCCN(C)C(=O)c1ccc(-c2nc3cc(-c4ccc5[nH]c(-c6ccc(C(=O)NCCN(C)C)cc6)nc5c4)ccc3[nH]2)cc1)CC(=O)N(C)[C@@H](C)C(=O)N(C)[C@@H](C)C(=O)N(C)[C@@H](C)C(=O)N(CCCCN(C)C(=O)c1ccc(-c2nc3cc(-c4ccc5[nH]c(-c6ccc(C(=O)NCCN(C)C)cc6)nc5c4)ccc3[nH]2)cc1)CC(N)=O [Compound 418] as the compound, how does the IC50 read?
Its IC50 is 5.32 µM.

Which IC50 does the source give for CN(C)CCNC(=O)c1ccc(-c2nc3cc(-c4ccc5[nH]c(-c6ccc(C(=O)NCCCCCCNC(=O)c7ccc(-c8nc9cc(-c%10ccc%11[nH]c(-c%12ccc(C(=O)NCCN(C)C)cc%12)nc%11c%10)ccc9[nH]8)cc7)cc6)nc5c4)ccc3[nH]2)cc1 [Compound 419] here?
Its IC50 is 4.85 µM.

CN(C)CCNC(=O)c1ccc(-c2nc3cc(-c4ccc5[nH]c(-c6ccc(C(=O)NCCCCNC(=O)c7ccc(-c8nc9cc(-c%10ccc%11[nH]c(-c%12ccc(C(=O)NCCN(C)C)cc%12)nc%11c%10)ccc9[nH]8)cc7)cc6)nc5c4)ccc3[nH]2)cc1 [Compound 420] was tested. Which IC50 did it give?
The IC50 was 6.32 µM.

Which IC50 does the source give for CN(C)CCNC(=O)c1ccc(-c2nc3cc(-c4ccc5[nH]c(-c6ccc(C(=O)NCCCCCCCNC(=O)c7ccc(-c8nc9cc(-c%10ccc%11[nH]c(-c%12ccc(C(=O)NCCN(C)C)cc%12)nc%11c%10)ccc9[nH]8)cc7)cc6)nc5c4)ccc3[nH]2)cc1 [Compound 421] here?
Its IC50 is 14.8 µM.

CN(C)CCNC(=O)c1ccc(-c2nc3cc(-c4ccc5[nH]c(-c6ccc(C(=O)NCCCCCCCCNC(=O)c7ccc(-c8nc9cc(-c%10ccc%11[nH]c(-c%12ccc(C(=O)NCCN(C)C)cc%12)nc%11c%10)ccc9[nH]8)cc7)cc6)nc5c4)ccc3[nH]2)cc1 [Compound 422] was tested. Which IC50 did it give?
Its IC50 is 5.65 µM.

Which IC50 does the source give for CN(C)CCNC(=O)c1ccc(-c2nc3cc(-c4ccc5[nH]c(-c6ccc(C(=O)NCCCCCCCCCNC(=O)c7ccc(-c8nc9cc(-c%10ccc%11[nH]c(-c%12ccc(C(=O)NCCN(C)C)cc%12)nc%11c%10)ccc9[nH]8)cc7)cc6)nc5c4)ccc3[nH]2)cc1 [Compound 423] here?
Its IC50 is 5.31 µM.

CN(C)CCNC(=O)c1ccc(-c2nc3cc(-c4ccc5[nH]c(-c6ccc(C(=O)NCCCCCCCCCCNC(=O)c7ccc(-c8nc9cc(-c%10ccc%11[nH]c(-c%12ccc(C(=O)NCCN(C)C)cc%12)nc%11c%10)ccc9[nH]8)cc7)cc6)nc5c4)ccc3[nH]2)cc1 [Compound 424] was tested. Which IC50 did it give?
Its IC50 is 5.82 µM.

Which IC50 does the source give for CN(C)CCNC(=O)c1ccc(-c2nc3ccc(-c4ccc5nc(-c6ccc(C(=O)NCC(C)(C)CNC(=O)c7ccc(-c8nc9ccc(-c%10ccc%11nc(-c%12ccc(C(=O)NCCN(C)C)cc%12)[nH]c%11c%10)cc9[nH]8)cc7)cc6)[nH]c5c4)cc3[nH]2)cc1 [Compound 425] here?
Its IC50 is 9.83 µM.

How did the IC50 turn out when CC(CCCNC(=O)c1ccc(-c2nc3ccc(-c4ccc5nc(-c6ccc(C(=O)NCCN(C)C)cc6)[nH]c5c4)cc3[nH]2)cc1)CNC(=O)c1ccc(-c2nc3ccc(-c4ccc5nc(-c6ccc(C(=O)NCCN(C)C)cc6)[nH]c5c4)cc3[nH]2)cc1 (stereo not shown) [Compound 426] was run?
Its IC50 is 7.04 µM.

For CN(C)CCNC(=O)c1ccc(-c2nc3ccc(-c4ccc5nc(-c6ccc(C(=O)N7CCC(CCCC8CCN(C(=O)c9ccc(-c%10nc%11ccc(-c%12ccc%13nc(-c%14ccc(C(=O)NCCN(C)C)cc%14)[nH]c%13c%12)cc%11[nH]%10)cc9)CC8)CC7)cc6)[nH]c5c4)cc3[nH]2)cc1 [Compound 427], which IC50 is on record?
The IC50 was 3.23 µM.

With CN(C)CCNC(=O)c1ccc(-c2nc3ccc(-c4ccc5nc(-c6ccc(C(=O)NC7CCC(CC8CCC(NC(=O)c9ccc(-c%10nc%11ccc(-c%12ccc%13nc(-c%14ccc(C(=O)NCCN(C)C)cc%14)[nH]c%13c%12)cc%11[nH]%10)cc9)CC8)CC7)cc6)[nH]c5c4)cc3[nH]2)cc1 (stereo not shown) [Compound 428] as the compound, how does the IC50 read?
The IC50 was 2.9 µM.

How did the IC50 turn out when CN(C)CCNC(=O)c1ccc(-c2nc3ccc(-c4ccc5nc(-c6ccc(C(=O)NCCCOCCOCCOCCCNC(=O)c7ccc(-c8nc9ccc(-c%10ccc%11nc(-c%12ccc(C(=O)NCCN(C)C)cc%12)[nH]c%11c%10)cc9[nH]8)cc7)cc6)[nH]c5c4)cc3[nH]2)cc1 [Compound 429] was run?
The IC50 was 9.6 µM.

C[C@@H](C(=O)N(C)[C@@H](C)C(=O)N(C)[C@@H](C)C(=O)N(C)[C@@H](C)C(=O)N(CCCn1cc(COCCOCCN(C)C(=O)c2ccc(-c3nc4ccc(-c5ccc6nc(-c7ccc(C(=O)NCCN(C)C)cc7)[nH]c6c5)cc4[nH]3)cc2)nn1)CC(N)=O)N(C)C(=O)CNCCCn1cc(COCCOCCN(C)C(=O)c2ccc(-c3nc4ccc(-c5ccc6nc(-c7ccc(C(=O)NCCN(C)C)cc7)[nH]c6c5)cc4[nH]3)cc2)nn1 [Compound 430] was tested. Which IC50 did it give?
The IC50 was 7.7 µM.
